Earlier results in publication PMC4008261, “Rewiring of regenerated axons by combining treadmill training with semaphorin3A inhibition” (Molecular Brain, 2014).

Legend:
[1] = system: SCT adult rats; set-up: method as in PMID 17099709; conditions: adult rats after total spinal cord transection (SCT), osmotic mini-pump; cited from earlier work
[2] = system: semaphorin3A; set-up: method as in PMID 17099709; conditions: in vitro and in vivo; cited from earlier work

For `CC(=O)c1c(C)c(/C(O)=C2\COc3cc(O)c(O)c(C(=O)O)c3C2=O)cc2c(=O)c3c(C(=O)O)c(O)c(O)cc3oc12` [SM-216289, xanthofulvin], the “axonal regeneration and motor function recovery” value [1] is given as “led to axonal regeneration and motor function recovery” and the “inhibition of semaphorin3A signaling” value [2] is given as “selectively inhibits semaphorin3A signaling both in vitro and in vivo”.
